From patent US20080039337A1, “Method for Detection of Conformational Change of a Protein Immobilized on a Substrate” (FUENCE CO., LTD., priority 2004, published 2008)

Target: T1, Amyloid β (1-42) (Homo sapiens, UniProt P05067)
T1 construct: Amyloid β (1-42); purchased Bachem AG, Bubendorf, Switzerland (printed 'Bachem A G, Budendorf')
Test: Detection of conformational change to β-sheet structure of amyloid β (1-42) film immobilized on a substrate, by fluorescent dye binding
Assay type: biochemical
Settings: film immersed into 1 mM ZnCl2 in 10 mM Hepes pH 7.4, 0.15 M NaCl for 10 minutes; dye 1-fluoro-2,5-bis(3-carboxy-4-hyrdoxystyryl)benzene; compared with buffer only and with EDTA after ZnCl2
Procedure: Amyloid β (1-42) (Bachem A G, Budendorf, Switzerland) was dissolved in 0.1% ammonia water at the concentration of 1 mg/mL. This solution was sprayed under dry air using an electrospry device described in WO 2002-511792 or an immobilzing device described in Japanese Patent Publication No. 2003-136005. The solution was permeated through a mask with holes of 400 μm in length and 800 μm in width, and then a film having 1 μm thickness was prepared using an electrospray method (the EDS method), then protein was cross-linked at 30° C. for 5 minutes by glutaraldehyde.
The resulting film was immersed into 10 mM Hepes pH 7.4 buffer solution (hereinafter referred to as “the buffer solution”) containing 0.15 M NaCl for 10 minutes, in the presence or absence of ZnCl2, except that the EDTA sample was only reacted with 1 mM ZnCl2 and then immersed in a buffer solution containing 1 mM EDTA for 10 minutes. After that the film was immersed into a solution of 1-fluoro-2,5-bis(3-carboxy-4-hyrdoxystyryl)benzene (Dojindo Chemical Laboratory Co., Kumamoto) that binds to β-sheet structure, prepared to the final concentration of 0.01% using 50% ethanol solution. Furthermore, the film was immersed into a solution of saturated lithium carbonate, then it was lightly washed by 50% ethanol, then dried and observed under fluorescent microscope. […]

T1 sequence (P05067 672-713): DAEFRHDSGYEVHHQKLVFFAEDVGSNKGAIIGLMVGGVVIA

fluorescent intensity of the film (relative intensity), indicating change of amyloid β to β sheet structure: the highest
SMILES: [Cl-].[Cl-].[Zn+2] [ZnCl2]
